Measured values: patent US7834040B2, “Isoxazolic derivative to relieve neuropathic pain” (Zambon S.p.A., priority 2004, dated 2010)
Entries after “also recorded” stand apart in the source; their conditions may differ.

Legend:
[1] = tested on: neuropathic pain caused by the ligament of the rat's spinal nerve (SNL); test: Mechanical allodinia in the SNL model of neuropathic pain (ligature of the spinal nerve); format: in vivo, male rats of Wistar strain
From the text: The effectiveness of the compound of formula (I) has been tested experimentally in two different models of neuropathic pain caused by chronic constrictive lesion of the sciatic nerve of the rat's hind leg (CCI) and by the ligament of the rat's spinal nerve (SNL), according to the procedure reported in the following experimental part. To a second group of male rats of Wistar strain a peripheral neuropathy has been induced by means of ligature of the spinal nerve according to the modified method described by Kim and Chung and which is constituted by the ligature of two (L5-L6) of the three spinal nerves which form the sciatic nerve (Pain 50:355-363, 1992). In order to evaluate the neuropathic pain, the development of mechanical allodinia was measured by calculating the average of the pain perception thresholds in the animals' legs in response to mechanical stimuli, following the method described by Chaplan et al. (Journal Neurosci. Method. 53:55-63, […]). In the first group of experiments the measurements have been carried out before and 14 days after the ligature of the […] (CCI). In the second group of experiments the same parameter has been similarly evaluated before and 14 days after the ligature of the spinal nerve (SNL). In both groups, the mechanical allodinia threshold has been measured before (pre-treatment) and 0.5, 1, 2, 4 and 6 hours after treatment by oral route with the compound of formula (I) at doses of 3, 30 and 300 mg/kg.

[2] = tested on: neuropathic pain caused by chronic constrictive lesion of the sciatic nerve of the rat's hind leg (CCI); test: Mechanical allodinia in the CCI model of neuropathic pain (chronic constrictive lesion of the sciatic nerve); format: in vivo, male rats of Wistar strain
From the text: The effectiveness of the compound of formula (I) has been tested experimentally in two different models of neuropathic pain caused by chronic constrictive lesion of the sciatic nerve of the rat's hind leg (CCI) and by the ligament of the rat's spinal nerve (SNL), according to the procedure reported in the following experimental part. To a group of male rats of Wistar strain a peripheral neuropathy has been induced by means of ligature of the sciatic nerve (CCI) according to the Bennet and Xie model (Pain 33:87-107, 1988). In order to evaluate the neuropathic pain, the development of mechanical allodinia was measured by calculating the average of the pain perception thresholds in the animals' legs in response to mechanical stimuli, following the method described by Chaplan et al. (Journal Neurosci. Method. 53:55-63, […]). In the first group of experiments the measurements have been carried out before and 14 days after the ligature of the […] (CCI). In the second group of experiments the same parameter has been similarly evaluated before and 14 days after the ligature of the spinal nerve (SNL). In both groups, the mechanical allodinia threshold has been measured before (pre-treatment) and 0.5, 1, 2, 4 and 6 hours after treatment by oral route with the compound of formula (I) at doses of 3, 30 and 300 mg/kg.

neuropathic pain = settings: Rashid et al., J. Pharmacol. Exp. Ther. 303:226-231, 2002; cited from earlier work
[3] = oral route, 3, 30 and 300 mg/kg, 0.5-6 hours after treatment, 14 days after ligature

**Q.** Which “dose from which the antiallodinic effect is statistically significative” value ([1]; oral route) does the source give for `Cc1cc(C(=O)NCCCC(=O)O)on1` [compound of formula (I)] here?
**A.** Its value is no less than 3 mg/kg.

**Q.** And the “time after treatment up to which the antiallodinic effect is detected” value ([1]; oral route)?
**A.** Its value is “up to 6 hours”.

**Q.** What about the “mechanical allodinia (pain perception threshold to mechanical stimuli)” value [1, 3] of the same compound?
**A.** The value was “reduced in a dose-depending way the mechanical allodinia; also recorded: marked reduction in the neuropathic allodinia”.

**Q.** What about the “dose from which the antiallodinic effect is statistically significative” value ([2]; oral route) of the same compound?
**A.** Its value is no less than 3 mg/kg.

**Q.** And the “time after treatment up to which the antiallodinic effect is detected” value ([2]; oral route)?
**A.** Its value is “up to 6 hours”.

**Q.** And the “mechanical allodinia (pain perception threshold to mechanical stimuli)” value [2, 3]?
**A.** The value was “reduced in a dose-depending way the mechanical allodinia; also recorded: marked reduction in the neuropathic allodinia”.

**Q.** Which “analgesic effect with respect to the neuropathic pain” value (shortened to “analgesic effect”) (neuropathic pain) does the source give for `CC[C@H](C(N)=O)N1CCCC1=O` [levitiracetam] here?
**A.** The value was “do not produce significant analgesic effects”.

**Q.** With `Cc1cccc(C)c1NC(=O)CN1CCCC1=O` [nefiracetam] as the compound, how does the “analgesic effect” value (neuropathic pain) read?
**A.** The value was “powerful analgesic effect”.

**Q.** Which “analgesic effect” value (neuropathic pain) does the source give for `NC(=O)CN1CC(O)CC1=O` (stereo not shown) [oxiracetam] here?
**A.** Its value is “do not produce significant analgesic effects”.

**Q.** With `NC(=O)CN1CCCC1=O` [piracetam] as the compound, how does the “analgesic effect” value (neuropathic pain) read?
**A.** Its value is “do not produce significant analgesic effects”.
